Test system: lincosamides universal monoclonal antibody secreted by monoclonal cell strain CGMCC No. 14691
Assay: indirect competitive ELISA with coating antigen Lin-OVA
Type: binding, BALB/c mice
Settings: lincosamides standard substances competing with coating antigen Lin-OVA
Method: The specific ELISA procedure was as follows:
Coating: the coating antigen was subjected to gradient dilution with a 0.05 M pH 9.6 carbonate buffer solution, and incubated at 37° C. for 2 h at 100 μL/well.
Washing: a solution in a plate was decanted, and 200 μL of a PBST solution was injected into each well, placed on a shaker to shake for 3 min, spin-dried, and washed 3 times. The following washing method was the same.
Blocking: After patting dry, 200 μL of a blocking buffer was added to each well, and incubated at a temperature of 37° C. for 2 h. After washing, the product was dried to be ready for use.
Color development: the ELISA plate was taken out, and fully washed, and then 100 μL of a color developing solution (the ratio of TMB to a substrate liquid is 1:5) was added to each well to react at a temperature of 37° C. for 15 min in the dark.
Stopping and determination: the ELISA plate was taken out, 50 μL of a stop solution (2 mol/L sulfuric acid) was added to each well to stop the reaction, and then the absorbance A450 of each well was determined by an ELISA reader.

Row | half inhibition concentration (IC50) of the monoclonal antibody [µg/mL] | Structure (SMILES)
1 | 0.004339 | CCC[C@@H]1C[C@@H](C(=O)N[C@@H]([C@H]2O[C@H](SC)[C@H](O)[C@@H](O)[C@H]2O)[C@@H](C)O)N(C)C1 [lincomycin]
2 | 0.019314 | CC[C@@H]1CCN[C@H](C(=O)N[C@@H]([C@H]2O[C@H](SC)[C@H](O)[C@@H](O)[C@H]2O)[C@H](C)Cl)C1 [pirlimycin]

Reference: patent publication US10808041B2, “Lincosamides universal monoclonal antibody hybridoma cell strain and application thereof” (Jiangnan University, priority 2017, dated 2020)
